Structures can show the parent of a compound that is named as a salt. One block for each compound: values may come before it.
Assays:
[1] = test system: BMI-1 and αENaC mRNA; test: mRNA expression of BMI-1 and αENaC on concomitant treatment with cyclohexamide; format: cell-based; settings: RU-A15 100 nM, RU-A16 200 nM, concomitant with CHX
Method: Next, to test if Examples 3 and 4 are selective for BMI-1 RNA, cells were concomitantly treated with RU-A15/16 (100 nM, 200 nM, respectively) and cyclohexamide (CHX), a general translational inhibitor, and analyzed mRNA expression of BMI-1 and the CHX-specific target epithelial sodium channel (αENaC).

[2] = test system: glioblastoma cancer cell line; test: MTT viability assay with glioblastoma cancer cell line (Test A); format: cell-based, human; settings: for EC50: Homo sapiens, 72 hours
Text: To generate primary patient-derived GBM models for testing small molecule inhibitors, fresh primary tissues were received from patients undergoing surgical resection of WHO grade IV gliomas at Robert Wood Johnson University Hospital (RWJUH) under an approved IRB protocol. De-identified primary human GBM samples were delivered to the laboratory. Cells were obtained through mechanical dissociation of the tumor tissue using a blade and plated in DMEM/F12 medium (Gibco) in the presence of B-27 Supplement (Gibco, #17504-044), 20 ng/ml of human recombinant EGF (Gibco, #PHG0311L) and human recombinant FGF (Peprotech, #AF-100-18B). The following day, the culture was collected, incubated with Accutase (Gibco, #A11105-01) at 37° C. and passed through a 26G×⅜ needle (BD Precision Glide, #305110) to obtain a single cell suspension and re-plated in the same supplemented medium. Cells were cultured at low (5-6) passages in serum-free sphere 3D culture with mitogens that preserve the clonogenic stemness phenotype. […] different primary GBM cells (GBM #46, GBM #50, and GBM #76) were tested for cell viability after treatment with the inhibitors. Cell viability was measured using MTT assay. Briefly, one thousand cells per well were seeded in 96-well plates and exposed to drug in a total of 200 uL media. After 72 hours, 50 uL of stock concentration of 2.5 mg/mL 3-(4,5-dimethylthiazol-2-yl)-2,5-diphenyltetrazolium bromide (MTT) (Sigma, #M2128) dissolved in PBS was added to wells and incubated at 37° C. for 4 hours; read in a […] plate reader at 570 nm and compared to DMSO and untreated cells. The IC50 (defined as the concentration at which 50% of the cells were viable) was determined from the curve.
Accordingly, compounds of the invention may be useful as therapeutic agents for the treatment of cancer.
To generate primary patient-derived GBM models for testing small molecule inhibitors, fresh primary tissues were received from patients undergoing surgical resection of WHO grade IV gliomas at Robert Wood Johnson University Hospital (RWJUH) under an approved RB protocol. De-identified primary human GBM samples were delivered to the laboratory. Cells were obtained through mechanical dissociation of the tumor tissue using a blade and plated in DMEM/F12 medium (Gibco) in the presence of B-27 Supplement (Gibco, #17504-044), 20 ng/ml of human recombinant EGF (Gibco, #PHG0311L) and human recombinant FGF (Peprotech, #AF-100-18B). […] Cell viability was measured using MTT assay. […] After 72 hours, 50 uL of stock concentration of 2.5 mg/mL 3-(4,5-dimethylthiazol-2-yl)-2,5-diphenyltetrazolium bromide (MTT) (Sigma, #M2128) dissolved in PBS was added to wells and incubated at 37° C. for 4 hours; read in a […] plate reader at 570 nm and compared to DMSO and untreated cells. […]

[3] = test system: BMI-1 and ubiquitinated histone H2A in primary glioblastoma cells; test: Modulation / dynamics of BMI-1 and downstream targets in GBM cells (Western blotting); format: cell-based, human
Method: Different GBM cells were treated with DMSO or different concentrations of the B compounds for 72 hours. Cells were lysed in Cell Lysis Buffer (Cell Signaling, #9803) supplemented with Protease Inhibitor Cocktail (Sigma, #P8340), spun down for 30 minutes at 4° C., after which the supernatant was collected at every time point indicated. Western blotting analysis was performed on all samples as described above. BMI-1 loss started at 6-12 h, coinciding with an upper shift and hyper-phosphorylation of BMI-1 at 12-24 h and complete depletion at 72 h.
To study the compound dynamic activity against GBM spheres, GBMs were tested with exemplary compounds. Different GBM cells were treated with DMSO or different concentrations of the inhibitors for 72 hours. Cells were lysed in Cell Lysis Buffer (Cell Signaling, #9803) supplemented with Protease Inhibitor Cocktail (Sigma, #P8340), spun down for 30 minutes at 4° C., after which the supernatant was collected at every time point indicated. Western blotting analysis was performed on all samples as described above. […] BMI-1 loss started at 6-12 h, coinciding with an upper shift and hyper-phosphorylation of BMI-1 at 12-24 h and complete depletion at 72 h. […] This is expected since BMI-1 is known to suppress p21. BMI-1 inhibition could be reversed using phosphatase treatment, moreover, when proteasomal inhibitor is added to treated cells after 24 h, BMI-1 is locked in the phosphorylated state, therefore showing that the phosphorylation event precedes BMI-1 degradation. The phosphorylation was independent of p38 kinase activation, as when we added […], the p38 inhibitor to the cultured cells upon treatment with the BMI-1 inhibitor, the combined treatment could not reverse the effects of RU-A15 on BMI-1 inhibition.

[4] = test system: BMI-1 5'UTR; test: Luciferase plasmid containing the BMI-1 5'UTR with or without binding pocket; format: cell-based
Method: Since translation initiation is dependent on RNA folding, the 3D folding of the BMI-1 5′UTR was examined. To identify sequences that fold into a target minimum and maximum free energy (MFE) secondary structure, inverse RNA folding of the BMI-1 5′UTR was performed using the mFold server. A highly probable, probability annotated group of secondary structures were identified, starting with the MFE, centroid energy structures and including fourteen other probabilities. […] In a luciferase plasmid containing the BMI-1 5′UTR, the sequences of the pocket region that contains the potential binding site was removed by cutting with compatible restriction enzymes and re-ligating the plasmid. The luciferase activity was examined with the luc plasmids or without the binding pocket upon treatment with the inhibitors. […] Thus, RU-A15/A16 engages with the BMI-1 UTR regulatory mechanisms.

[5] = test system: U87 glioblastoma cells; test: Comparison of Example 3 and PTC-209 in U87 glioblastoma cells (cell viability); format: cell-based; settings: 72 hours
Text: BMI-1 inhibitors were developed by the Molecular Design and Synthesis laboratory, Rutgers Translational Sciences at Rutgers University, NJ, USA. […] (Generic name is PTC-209) was characterized among a screen for post-transcriptional inhibitors of BMI-1. Zebrafish embryo toxicology assays were used to select RU-A compounds with no embryonic toxicity in vivo (a surrogate assay for toxic effects on normal stem cells). […] Cells were counted using Beckman Coulter Vi-CELL Cell Viability Analyzer, and cell viability was confirmed by CellTiter-Glo Luminescent Cell Viability Assay (Promega, Madison, Wis., USA) according to standard protocols and analyzed with a Victor 2 plate reader (Wallac, Turku, Finland).

[6] = primary glioblastoma cells, Western blotting

Structure (SMILES): C[C@@H]1C[C@@H]([C@H](O)CC2CC(=O)NC(=O)C2)C(=O)[C@@H](C)C1 [CHX, cyclohexamide, reference compound]
BMI-1 mRNA expression [1]: lowered mRNA levels
αENaC mRNA expression [1]: lowered mRNA levels

Structure (SMILES): COc1cc(Br)c(Nc2nc(-c3c(C)nc4ncccn34)cs2)c(Br)c1 [PTC-209, reference compound]
IC50 [5]: 10 µM

Structure (SMILES): Cc1c(-c2csc(Nc3ccc(N(C)C)cc3)n2)nc2ccccn12 [Example B4, N^1,N^1-dimethyl-N^4-(4-(3-methylimidazo[1,2-a]pyridin-2-yl)thiazol-2-yl)benzene-1,4-diamine]
EC80 ([2]; cell marked (EC80) in the EC50 column): 20 (EC80) μM

Second part, led by results:

EC50 [2]: 20 µM
Structure (SMILES): COc1ccc(Nc2nc(-c3nc4ccccn4c3C)cs2)cc1 [Example B3, N-(4-methoxyphenyl)-4-(3-methylimidazo[1,2-a]pyridin-2-yl)thiazol-2-amine]

normalized luc, BMI-1 5'UTR with intact binding pocket ([4]; intact minor groove potential binding pocket): significantly reduced normalized luc
Structure (SMILES): Cc1nc2ccccn2c1-c1csc(Nc2ccc3c(c2)OCO3)n1 [Example 4, N-(benzo[d][1,3]dioxol-5-yl)-4-(2-methylimidazo[1,2-a]pyridin-3-yl)thiazol-2-amine hydrobromide]
BMI-1 mRNA expression [1]: did not inhibit
αENaC mRNA expression [1]: did not inhibit
CDK inhibitor p21 ([3]; GBM#46 and #50): induced upregulation of the CDK inhibitor p21
BMI-1 protein levels [3, 6]: inhibit BMI-1
WT p53 levels [3, 6]: increase WT p53 levels
ubiquitin H2A [3, 6]: inhibit ubiquitin H2A
normalized luc, binding pocket sequences removed ([4]; pocket sequences removed): not when the pocket sequences were removed

EC50 [2]: 1 µM
Structure (SMILES): Cc1c(-c2csc(Nc3ccc(N(C)C)cc3)n2)nc2ncccn12 [Example B2, N^1,N^1-dimethyl-N^4-(4-(3-methylimidazo[1,2-a]pyrimidin-2-yl)thiazol-2-yl)benzene-1,4-diamine]
modulation of ubiquitinated histone H2A (Test B) ([3]; GBM cells, B compounds, 72 hours): modulation of downstream target ubiquitinated histone H2A

From patent US10875861B1, “Therapeutic compounds” (Rutgers, The State University of New Jersey, priority 2017, dated 2020)
